# Data published in patent US20170240513A1, “SUBSTITUTED PYRIMIDINES AS INHIBITORS OF HIF PROLYL HYDROXYLASE” (MERCK SHARP & DOHME CORP., priority 2014, published 2017).
# Target: T1, human HIF-PHD2 (Homo sapiens, UniProt Q9GZT9)
# T1 construct: FLAG-tagged full length PHD2 expressed in and purified from baculovirus-infected Sf9 cells; FLAG; made in house; host or cells: baculovirus-infected Sf9 cells
# Assay: HIF-PHD2 inhibition of HIF-1α peptide hydroxylation (time resolved fluorescence)
# Type: biochemical
# Conditions: FLAG-tagged full length PHD2; 0.2 μM 2-oxoglutarate, 0.5 μM HIF-1α peptide
# Description: Select examples of assays that may be used to detect favorable activity are disclosed in the following publications: Oehme, F., et al., Anal. Biochem. 330:74-80 (2004); Hirsilä, M, et al., J. Bio. Chem. 278 (33): 30772-30780 (2005); Hyunju, C., et al., Biochem. Biophys. Res. Comm. 330 275-280 (2005); and Hewitson, K. S., et al., Methods in Enzymology, (Oxygen Biology and Hypoxia); Elsevier Publisher (2007), pg. 25-42 (ISSN: 0076-6879).
# To each well of a 384-well plate, 1 μL of test compounds in DMSO (final concentration ranging from 0.3 nM to 10 uM) were added into 20 μl of assay buffer (50 mM Tris pH 7.4/0.01% Tween-20/0.1 mg/ml bovine serum albumin/[…]/1 mM sodium ascorbate/20 μg/ml catalase) containing 0.15 μg/ml FLAG-tagged full length PHD2 expressed in and purified from baculovirus-infected Sf9 cells. After a 5 min preincubation at room temperature, the enzymatic reactions were initiated by the addition of 4 μL of substrates {final concentrations of 0.2 μM 2-oxoglutarate and 0.5 μM HIF-1α peptide biotinyl-DLDLEMLAPYIPMDDDFQL (SEQ ID NO: 1)}. After incubation for 45 minutes at room temperature, the reactions were terminated by the addition of a 25 μL quench/detection mix to a final concentration of 1 mM ortho-phenanthroline, 0.1 mM EDTA, 0.5 nM anti-(His)6 LANCE reagent (Perkin-Elmer Life Sciences), 100 nM AF647-labeled streptavidin (Invitrogen), and 2 μg/ml (His)6-VHL complex {S. Tan Protein Expr. Purif. 21, 224-234 (2001)} and the signals were developed for 30 minutes at room temperature. The ratio of time resolved fluorescence signals at 665 and 620 nm was determined, and percent inhibition was calculated relative to the high control samples (DMSO treated) run in parallel, after background subtraction.
# T1 sequence (Q9GZT9 whole entry): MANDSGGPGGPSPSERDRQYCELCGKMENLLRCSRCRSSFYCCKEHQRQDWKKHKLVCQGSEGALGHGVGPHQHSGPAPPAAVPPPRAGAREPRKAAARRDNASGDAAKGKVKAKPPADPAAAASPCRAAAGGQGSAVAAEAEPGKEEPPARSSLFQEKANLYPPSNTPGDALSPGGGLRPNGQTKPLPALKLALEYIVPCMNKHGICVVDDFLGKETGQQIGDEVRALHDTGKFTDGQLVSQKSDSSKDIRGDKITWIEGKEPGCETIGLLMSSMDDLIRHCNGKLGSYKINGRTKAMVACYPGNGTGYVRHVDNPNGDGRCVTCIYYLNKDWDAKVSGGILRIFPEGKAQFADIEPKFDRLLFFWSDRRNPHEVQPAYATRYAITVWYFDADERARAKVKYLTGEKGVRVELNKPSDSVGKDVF
row,Structure (SMILES),IC50
1,"CCOC(=O)C(C)(O)CNC(=O)c1ncc(C(=O)NC(c2ccccc2)c2ccccc2)c(O)n1 (single isomer, unassigned) [Example 26, Ethyl 3-(5-(benzhydrylcarbamoyl)-4-hydroxypyrimidine-2-carboxamido)-2-hydroxy-2-methylpropanoate]",940 nM
2,"CCOC(=O)C(C)(O)CNC(=O)c1ncc(C(=O)NC(c2ccccc2)c2ccccc2)c(O)n1 (single isomer, unassigned) [Example 27, Ethyl 3-(5-(benzhydrylcarbamoyl)-4-hydroxypyrimidine-2-carboxamido)-2-hydroxy-2-methylpropanoate]",879 nM
3,"O=C(CCNC(=O)c1ncc(C(=O)NC(c2ccccc2)c2ccccc2)c(O)n1)OCCN1CCOCC1 [Ex. 2, 2-morpholinoethyl 3-(5-(benzhydrylcarbamoyl)-4-hydroxypyrimidine-2-carboxamido)propanoate]",24.9 nM
4,"CCOC(=O)C1(CNC(=O)c2ncc(C(=O)NC(c3ccccc3)c3ccccc3)c(O)n2)CC1 [Ex. 3, ethyl 1-((5-(benzhydrylcarbamoyl)-4-hydroxypyrimidine-2-carboxamido)methyl)cyclopropanecarboxylate]",35.6 nM
5,"CCOC(=O)C(C)(O)CNC(=O)c1ncc(C(=O)NC(c2ccccc2)c2ccccc2)c(O)n1 (stereo not drawn) [Ex. 4, ethyl 3-(5-(benzhydrylcarbamoyl)-4-hydroxypyrimidine-2-carboxamido)-2-hydroxy-2-methylpropanoate]",871 nM
6,"CC(=O)OCOC(=O)CCNC(=O)c1ncc(C(=O)NC(c2ccccc2)c2ccccc2)c(O)n1 [Ex. 7, Acetoxymethyl 3-(5-(benzhydrylcarbamoyl)-4-hydroxypyrimidine-2-carboxamido)propanoate]",3.11 nM
7,"CCOC(=O)OCOC(=O)CCNC(=O)c1ncc(C(=O)NC(c2ccccc2)c2ccccc2)c(O)n1 [Ex. 12, ((ethoxycarbonyl)oxy)methyl 3-(5-(benzhydrylcarbamoyl)-4-hydroxypyrimidine-2-carboxamido)propanoate]",2.46 nM
8,"O=C1CCN(C(=O)c2ncc(C(=O)NC(c3ccccc3)c3ccccc3)c(O)n2)CO1 [Ex. 14, N-Benzhydryl-4-hydroxy-2-(6-oxo-1,3-oxazinane-3-carbonyl)pyrimidine-5-carboxamide]",11.2 nM
9,"O=C(CNC(=O)c1ncc(C(=O)NC(c2ccccc2)c2ccccc2)c(O)n1)Oc1ccc2c(c1)CCC2 [Ex. 15, 2,3-Dihydro-1H-inden-5-yl 2-(5-(benzhydrylcarbamoyl)-4-hydroxypyrimidine-2-carboxamido)acetate]",11.2 nM
10,"O=C1CN(C(=O)c2ncc(C(=O)NC(c3ccccc3)c3ccccc3)c(O)n2)CO1 [Ex. 17, N-Benzhydryl-4-hydroxy-2-(5-oxooxazolidine-3-carbonyl)pyrimidine-5-carboxamide]",15.1 nM
11,"CC(C)C(=O)OCOC(=O)CNC(=O)c1ncc(C(=O)NC(c2ccccc2)c2ccccc2)c(O)n1 [Ex. 21, (2-(5-(benzhydrylcarbamoyl)-4-hydroxypyrimidine-2-carboxamido)acetoxy)methyl isobutyrate]",35 nM
12,CCOC(=O)OCOC(=O)CNC(=O)c1ncc(C(=O)NC(c2ccccc2)c2ccccc2)c(O)n1 [Ex. 22],14.7 nM
13,"CC(OC(=O)[C@H](O)CNC(=O)c1ncc(C(=O)NC(c2ccccc2)c2ccccc2)c(O)n1)C(=O)OCc1ccccc1 (stereo partly drawn) [Ex. 23, (2R)-1-(Benzyloxy)-1-oxopropan-2-yl 3-(5-(benzhydrylcarbamoyl)-4-hydroxypyrimidine-2-carboxamido)-2-hydroxypropanoate]",11.2 nM
14,"CCOC(=O)C(OC(=O)[C@H](O)CNC(=O)c1ncc(C(=O)NC(c2ccccc2)c2ccccc2)c(O)n1)c1ccccc1 (stereo partly drawn) [Ex. 24, (2R)-2-ethoxy-2-oxo-1-phenylethyl 3-(5-(benzhydrylcarbamoyl)-4-hydroxypyrimidine-2-carboxamido)-2-hydroxypropanoate]",326 nM
15,"O=C(NC[C@@H](O)C(=O)OC1CCCCC1O)c1ncc(C(=O)NC(c2ccccc2)c2ccccc2)c(O)n1 (stereo partly drawn) [Ex. 25, (2R)-2-Hydroxycyclohexyl 3-(5-(benzhydrylcarbamoyl)-4-hydroxypyrimidine-2-carboxamido)-2-hydroxypropanoate]",182 nM
16,O=C(CCNC(=O)c1ncc(C(=O)NC(c2ccccc2)c2ccccc2)c(O)n1)OCc1ccccc1 [Example 28],24.3 nM

# Other lines, results leading:
row,IC50,Structure (SMILES)
1,179 nM,"CC(C)OC(=O)COC(=O)C(C)CNC(=O)c1ncc(C(=O)NC(c2ccccc2)c2ccccc2)c(O)n1 (single isomer, unassigned) [Ex. 30, 2-Isopropoxy-2-oxoethyl 3-(5-(benzhydrylcarbamoyl)-4-hydroxypyrimidine-2-carboxamido)-2-methylpropanoate]"
2,14.3 nM,"COC(=O)CCNC(=O)c1ncc(C(=O)NC(c2ccccc2)c2ccccc2)c(O)n1 [Ex. 1, Methyl 3-(5-(benzhydrylcarbamoyl)-4-hydroxypyrimidine-2-carboxamido)propanoate]"
3,46.4 nM,"CCOC(=O)[C@H](O)CNC(=O)c1ncc(C(=O)NC(c2ccccc2)c2ccccc2)c(O)n1 [Ex. 5, (R)-ethyl 3-(5-(benzhydrylcarbamoyl)-4-hydroxypyrimidine-2-carboxamido)-2-hydroxypropanoate]"
4,2.81 nM,"CC(C)OC(=O)OCOC(=O)CCNC(=O)c1ncc(C(=O)NC(c2ccccc2)c2ccccc2)c(O)n1 [Ex. 8, ((isopropoxycarbonyl)oxy)methyl 3-(5-(benzhydrylcarbamoyl)-4-hydroxypyrimidine-2-carboxamido)propanoate]"
5,6.67 nM,"CCOC(=O)OC(C)OC(=O)CCNC(=O)c1ncc(C(=O)NC(c2ccccc2)c2ccccc2)c(O)n1 (stereo not drawn) [Ex. 9, 1-((ethoxycarbonyl)oxy)ethyl 3-(5-(benzhydrylcarbamoyl)-4-hydroxypyrimidine-2-carboxamido)propanoate]"
6,37.2 nM,"CC(C)OC(=O)OC(C)OC(=O)CCNC(=O)c1ncc(C(=O)NC(c2ccccc2)c2ccccc2)c(O)n1 (stereo not drawn) [Ex. 10, 1-((isopropoxycarbonyl)oxy)ethyl 3-(5-(benzhydrylcarbamoyl)-4-hydroxypyrimidine-2-carboxamido)propanoate]"
7,42.1 nM,"CC(OC(=O)CCNC(=O)c1ncc(C(=O)NC(c2ccccc2)c2ccccc2)c(O)n1)OC(=O)OC1CCCCC1 (stereo not drawn) [Ex. 11, 1-(((cyclohexyloxy)carbonyl)oxy)ethyl 3-(5-(benzhydrylcarbamoyl)-4-hydroxypyrimidine-2-carboxamido)propanoate]"
8,159 nM,"CN(C)C(=O)COC(=O)CCNC(=O)c1ncc(C(=O)NC(c2ccccc2)c2ccccc2)c(O)n1 [Ex. 13, 2-(Dimethylamino)-2-oxoethyl 3-(5-(benzhydrylcarbamoyl)-4-hydroxypyrimidine-2-carboxamido)propanoate]"
9,105 nM,"CN(C)C(=O)COC(=O)CNC(=O)c1ncc(C(=O)NC(c2ccccc2)c2ccccc2)c(O)n1 [Ex. 16, 2-(dimethylamino)-2-oxoethyl 2-(5-(benzhydrylcarbamoyl)-4-hydroxypyrimidine-2-carboxamido)acetate]"
10,43.9 nM,"CC(C)OC(=O)OC(C)OC(=O)CNC(=O)c1ncc(C(=O)NC(c2ccccc2)c2ccccc2)c(O)n1 (stereo not drawn) [Ex. 18, 1-((isopropoxycarbonyl)oxy)ethyl 2-(5-(benzhydrylcarbamoyl)-4-hydroxypyrimidine-2-carboxamido)acetate]"
11,32.2 nM,"CCOC(=O)OC(C)OC(=O)CNC(=O)c1ncc(C(=O)NC(c2ccccc2)c2ccccc2)c(O)n1 (stereo not drawn) [Ex. 19, 1-((ethoxycarbonyl)oxy)ethyl 2-(5-(benzhydrylcarbamoyl)-4-hydroxypyrimidine-2-carboxamido)acetate]"
12,41 nM,"CC(C)OC(=O)OCOC(=O)CNC(=O)c1ncc(C(=O)NC(c2ccccc2)c2ccccc2)c(O)n1 [Ex. 20, ((Isopropoxycarbonyl)oxy)methyl 2-(5-(benzhydrylcarbamoyl)-4-hydroxypyrimidine-2-carboxamido)acetate]"
13,171 nM,"CC(C)OC(=O)COC(=O)[C@H]1C[C@H](NC(=O)c2ncc(C(=O)NC(c3ccccc3)c3ccccc3)c(O)n2)C1 [Ex. 29, (1R,3R)-2-isopropoxy-2-oxoethyl 3-(5-(benzhydrylcarbamoyl)-4-hydroxypyrimidine-2-carboxamido)cyclobutanecarboxylate]"
14,15.9 nM,"CC(C)OC(=O)CCNC(=O)c1ncc(C(=O)NC(c2ccccc2)c2ccccc2)c(O)n1 [Example 6, Isopropyl 3-(5-(benzhydrylcarbamoyl)-4-hydroxypyrimidine-2-carboxamido)propanoate]"
